The results in this text go back to patent publication US8143282B2, “Heterocyclic compounds” (S*BIO Pte Ltd., priority 2005, dated 2012).

The structures appear in SMILES notation. Bounds are passed on as bounds.

For orientation: AUC(0-t) means the area under the concentration-time curve up to a stated or last time point. A word on the GI50: it is the concentration that inhibits growth by half.

Series [1] is described as follows: In vivo pharmacokinetic (PK) studies. As to conditions: mouse, plasma, po; mice, hydrochloric acid salt form (2HCl), 50 mg/kg. Here is the method:
Compound was dissolved in appropriate solution (saline or DMA and Cremaphor in saline) at 1 mg/ml for intravenous (IV) administration, or in 0.5% methyl cellulose, 0.1% Tween 80 in water at 5 mg/ml for oral administration. Mice were randomized according to body weight, grouped three per time point. Mice were administered single IV dose (10 mg/kg) via tail vein, or single oral dose (50 mg/kg) via gavage. At pre-defined time points (predose, 5 or 10, 30 min, 1, 2, 4, 8, and 24 h), one group of mice was sacrificed by overdose CO2 and blood samples were collected by cardiac puncture. The blood samples were centrifuged immediately for 10 min at 3000 rpm to separate plasma, and plasma was kept frozen at −80° C. until analysis by LC/MS/MS. Before sample analysis, the method was developed for LC/MS/MS assay. The method was validated for signal-response of the calibration standards, auto-sampler stability for ˜15 hours intra-day and inter-day calibration curve using eight calibration standards excluding the blank plasma. QC samples at three different concentrations in triplicates were prepared to determine the accuracy and precision. The extracted QC samples were compared to unextracted samples to determine the extraction efficiency of the analyte. LLOQ was determined by using triplicate samples of 1 ng/mL and 2 ng/mL to obtain accuracy and precision at the low end. Samples were analysed using the validated method. Data was analyzed by the non-compartmental model using WinNolin 4.0 software (Pharsight, Mountain View, Calif., USA). The mean values for the plasma compound concentration-time profiles were used in mouse PK study.
The PK parameter AUC0-last providing the information on the overall exposure of the drug in vivo is one of the key PK/PD parameters that helps in predicting the efficacy of an anti-cancer compound. The higher the AUC value, the better will be the in vivo efficacy of the compound at similar in vitro potency.

In series [2] the test system is A2780. In words: Cell-based proliferation assay for GI50 (CyQUANT), A2780. As to conditions: Homo sapiens; A2780, 96 h treatment; read-out: Cellular or Growth Inhibition Activity, GI50, A2780. The method, then: (§1) Human colon cancer cell lines (Colo205, HCT116), Ovarian cancer cell line (A2780), Hepatoma cell line (HEP3B), Prostate cancer cell line (PC3) were obtained from ATCC or ECACC. Colo205 cells were cultivated in RPMI 1640 containing 2 mM L-Glutamine, 5% FBS, 1.0 mM Na Pyruvate, 1 U/ml of penicillin and 1 μg of streptomycin. HCT116 cells were cultivated in McCoy's containing RPMI 1640 containing 2 mM L-Glutamine, 5% FBS, 1 U/ml of penicillin and 1 μg of streptomycin. A2780 cells were cultivated in RPMI 1640 containing 2 mM L-Glutamine, 5% FBS, 1 U/ml of penicillin and 1 μg of streptomycin. HEP3B cells were cultivated in EMEM containing 2 mM L-glutamine, 5% FBS, 1% non essential amino acid, 1 mM Na Pyruvate, 1 U/ml of penicillin and 1 μg of streptomycin. PC3 cells were cultivated in F12K, 2 mM L-glutamine, 5% FBS, 1 U/ml of penicillin and 1 μg of streptomycin. PC3, Colo205, and HCT116 cells were seeded in 96-wells plate at 1000, 5000 and 6000 cells per well respectively. A2780 and HEP3B cells were seeded in 96-wells plate at 4000 cells per well respectively. The plates were incubated at 37° C., 5% CO2, for 24 h. Cells were treated with compounds at various concentrations for 96 h. Cell growth was then monitored using CyQUANT® cell proliferation assay (Invitrogen Pte Ltd). Dose response curves were plotted to determine GI50 values for the compounds using XL-fit (ID Business Solution, Emeryville, Calif.). GI50 is defined as the concentration of compound required for 50% inhibition of cell growth.

Series [3] concerns HCT116. In words: Cell-based proliferation assay for GI50 (CyQUANT), HCT116. As to conditions: Homo sapiens, HCT-116; HCT116, 96 h treatment; read-out: Cellular or Growth Inhibition Activity, GI50, HCT116. The method, then:
as §1

The subject of series [4] is Colo205 cells. Put plainly: Cell-based proliferation assay for GI50 (CyQUANT), Colo205. As to conditions: Homo sapiens, COLO 205, 96 h treatment, read-out: Cellular or Growth Inhibition Activity in Colo205 cells, GI50. The procedure, abridged: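 Cells were seeded at 1000 (PC3), 5000 (Colo205), 6000 (HCT116) or 4000 (HEP3B) per well and left 24 h at 37° C. Compound treatment lasted 96 h. Growth was read by CyQUANT, and GI50 (50% growth inhibition) came from dose-response curves.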

For `CCCc1nc2cc(/C=C/C(=O)NO)ccc2n1CCNCCC(C)(C)C` [Compound 130, 3-{1-[2-(3,3-Dimethyl-butylamino)-ethyl]-2-propyl-1H-benzoimidazol-5-yl}-N-hydroxy-acrylamide], in series [1], the AUC(0-t) is 1050 ng·h/mL. Also, the values for the GI50 in series [2], in series [3] and in series [4] were under 500 nM, under 500 nM and 150 nM, respectively.
